Assay results as given in US20150250770A1, “LKB1 AS PREDICTIVE MARKER OF EVEROLIMUS EFFICACY IN BREAST CANCER” (CENTRE LEON BERARD, priority 2012, published 2015).
Read-outs that look alike come from different tables or passages of the source.

Experiments:
[1] = TAMRAD study; cited from earlier work
[2] = tested on: breast tumours with low or high LKB1 expression; test: TAMRAD translational study: time to progression by LKB1 H score (IHC) in primary tumour; format: in vivo, human
Description: Paraffin embedded breast tumors were serially sectioned at a thickness of 4 μm. After deparaffinization and rehydration, tissue sections were boiled in low pH buffer (Dako) using a PT Link at 97° C. for 30 minutes. For blocking endogenous peroxidases, the slides were incubated in 5% hydrogen peroxide in sterile water. The slides were then incubated at room temperature for one hour with the anti-LKB1 polyclonal rabbit antibody (Ref: Ab58786, Abcam, Cambridge, UK) diluted at 1/50. After rinsing in Phosphate Buffer Saline, the slides were incubated with a biotinylated secondary antibody bound to a streptavidin peroxidase conjugate (Envision Flex kit Ref: K800021-2, Dako, Trappes, France). […] Sections were counterstained with hematoxylin.
All slides were read by a single senior pathologist who was blinded to the clinical data. For comparison of the staining among tissues, samples were scored semi-quantitatively using a complete histological score (H score) that considered both the staining intensity and the percentage of cells stained at a specific range of intensities. For each case, the complete H score was defined as the products of the percentage of cells stained at a given staining intensity (0-100) and the staining intensity score (0, none; 1, weak, 2, moderate, and 3, intense). […]

[3] = tested on: hormone receptor-positive and human epidermal growth factor receptor type 2 (HER2)-negative mBC; conditions: cited from earlier work
[4] = tested on: metastatic breast cancer ER+/HER2− progressed after aromatase inhibitor; conditions: 724 patients randomized 2:1; cited from earlier work

CO[C@H]1C[C@@H]2CC[C@@H](C)[C@@](O)(O2)C(=O)C(=O)N2CCCC[C@H]2C(=O)O[C@H]([C@H](C)C[C@@H]2CC[C@@H](OCCO)[C@H](OC)C2)CC(=O)[C@H](C)/C=C(\C)[C@@H](O)[C@@H](OC)C(=O)[C@H](C)C[C@H](C)/C=C/C=C/C=C/1C [everolimus, 42-O-(2-hydroxyethyl)rapamycin]
patients who had to decrease the dose of everolimus [1]: 20%
patients who had to stop everolimus due to toxicities [1]: 20%

CC/C(=C(\c1ccccc1)c1ccc(OCCN(C)C)cc1)c1ccccc1 [tamoxifen]
time to progression ([2]; patients with H Score above 90, p=0.35): 5.5 months
time to progression ([2]; patients with LKB1 H Score below or at 90, P=0.03): 4.5 months
median TTP ([3]; ITT population, exploratory P=0.002): 4.5 months
clinical benefit rate (CBR) at 6 months ([3]; ITT population, exploratory P=0.045): 42%
time-to-progression (TTP) ([3]; TAMRAD trial, 111 patients): 4.5 months
median OS ([3]; last update of OS in September 2011): 32.9 months
clinical benefit rate (CBR) at 6 months ([3]; per-protocol population): 41%

exemestane [exemestane and placebo]
progression free survival (PFS), local investigator assessment [4]: 2.8 months
